The target of this experiment is T1, EphB4-Fc with EB2-His (Mus musculus, UniProt P54761).
T1 construct: soluble EphB ectodomains conjugated to Fc from R&D Systems; mouse EB2-His residues 18-232; purchased R&D Systems (EphB-Fc); Sino Biologicals (EphrinB-His)
T1 sequence (P54761 16-539 limits assumed): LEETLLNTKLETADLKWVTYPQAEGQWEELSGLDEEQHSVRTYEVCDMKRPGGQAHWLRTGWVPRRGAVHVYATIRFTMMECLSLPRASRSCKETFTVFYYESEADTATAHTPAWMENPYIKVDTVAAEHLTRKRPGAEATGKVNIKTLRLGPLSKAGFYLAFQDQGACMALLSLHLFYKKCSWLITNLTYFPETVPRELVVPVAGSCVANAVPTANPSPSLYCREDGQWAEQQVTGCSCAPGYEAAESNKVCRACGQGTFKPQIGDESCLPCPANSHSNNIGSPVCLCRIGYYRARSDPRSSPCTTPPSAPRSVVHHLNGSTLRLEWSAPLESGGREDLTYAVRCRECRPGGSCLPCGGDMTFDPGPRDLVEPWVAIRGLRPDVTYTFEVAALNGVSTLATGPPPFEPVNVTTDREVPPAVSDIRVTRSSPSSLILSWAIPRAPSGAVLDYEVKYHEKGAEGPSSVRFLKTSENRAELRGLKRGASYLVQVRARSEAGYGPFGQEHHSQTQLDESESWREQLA
Briefly: Alpha assay EphB4-EB2. The settings on record: for antagonism of EphB4-EB2 interaction: Alpha, ELISA, pulldown. It is filed as binding. The procedure:
FIG. 5D depicts results from an alpha assay using EphB2-Fc or EphB4-Fc with EB2-His and increasing A20 concentrations to calculate IC50 determination (~10 μM, similar to that found in FIG. 5C).
Protein interaction assays were developed using soluble EphB ectodomains conjugated to Fc from R&D Systems (e.g., rat EphB1-Fc residues 18-538, which is 99.4% identical to human) and EphrinB ectodomains conjugated to His from Sino Biologicals (e.g., mouse EB2-His residues 18-232, which is 97.7% identical to human). Titrating concentrations of the EphB1-Fc ectodomain (or unconjugated Fc protein as negative control) was added with titrating amounts of the three different EphrinB ectodomains (EB1-His, EB2-His, or EB3-His) with 125 ng each of the Protein A donor, anti-6×-His acceptor beads, 2% DMSO, and 1× HiBlock buffer (all from PerkinElmer) in 384 well plates, and after 3 hr incubation at RT were read in an Envision Multilabel Reader 2102. […] No signal above background (<1,500) was detected for wells that contained an Fc control protein and the EB-His proteins or just the EphB1-Fc protein and no EB-His protein.
A20, E13, and other compounds from the top 32 hits were then characterized in pulldown assays. EphB1-Fc was immobilized onto Protein A agarose beads, then mixed with compounds and the soluble EB2-His ectodomain for 1 hr at RT, after which protein complexes were washed and then bound EB2 was detected by immunoblot using anti-His antibodies.
A general note: ELISA stands for enzyme-linked immunosorbent assay.

Where only a bound is given, the exact number is not on record here.

For the compound `Oc1c(Cl)cc(CN2CCOCC2)c2cccnc12` [Compound 3, 7-chloro-5-(morpholinomethyl)quinolin-8-ol], the “antagonism of EphB4-EB2 interaction” value is “very little if any effect on the EphB4-EB2 interaction”.
What is called IC50 is the concentration that inhibits the measured activity by half. A low value points to inhibition by little substance. For the setting “EphB4-EB2”, `Oc1c(Br)cc(CN2CCOCC2)c2cccnc12` [Compound 5, 7-bromo-5-(morpholinomethyl)quinolin-8-ol] yielded an IC50 of over 150 µM.
`COc1ccccc1N1CCN(Cc2cc(Br)c(O)c3ncccc23)CC1` [Compound 70, 7-bromo-5-((4-(2-methoxyphenyl)piperazin-1-yl)methyl)quinolin-8-ol]: the “antagonism of EphB4-EB2 interaction” value was “very little if any effect on the EphB4-EB2 interaction”.

The record behind these values is patent US20260374739A1, “SMALL MOLECULAR WEIGHT CHEMICAL COMPOUND TO ANTAGONIZE EPH-EPHRIN TETRAMERIZATION AND INHIBIT BIDIRECTIONAL SIGNALING” (THE BOARD OF REGENTS OF THE UNIVERSITY OF TEXAS SYSTEM, priority 2022, published 2026).
